Data set [1] has as its system HEK293. Nature of the data set: Ability to decrease the intracellular cAMP levels induced by 1 nM NDP-MSH in HEK293/ hMC4 cells. Type of data set: functional, cell-based. The note with it: Homo sapiens.
The target in data set [2] is Melanocortin receptor 4 (Homo sapiens, UniProt P32245). Nature of the data set: In vitro binding affinity towards melanocortin 4 receptor.
Data set [3] can be described thus: AUC in rat p.o. Format: ADME, organism-based. The conditions noted are these: plasma, po.
Data set [4] in a line: Plasma clearance in rat p.o. Format: ADME, organism-based. The conditions noted are these: po.
Data set [5] can be described thus: Cmax in rat. Type of data set: ADME, organism-based. The note with it: in vivo.
Data set [6] is described as follows: Cmax in rat at the dose of 1 mg/kg i.v. Type of data set: ADME, organism-based. The arrangement: dose 1 mg/kg, route intravenous. The conditions noted are these: in vivo, iv.
Data set [7] is described as follows: Plasma clearance was determined. Format: ADME, organism-based. The conditions noted are these: rat.
A short description of data set [8]: AUC was determined. Type of data set: ADME. The conditions noted are these: plasma.

A word on the pIC50: it is −log10 of the IC50, conventionally taken in molar units. A word on the pKi: it is −log10 of the Ki, conventionally taken in molar units. Low values mean a high Ki, high ones a low Ki. As usually defined, the AUC is concentration integrated over time. A low value points to less exposure. For orientation: CL/F means the apparent clearance, not corrected for the fraction that reaches the circulation. As a reminder, the Cmax is the highest concentration seen after dosing. What is called clearance is the volume of plasma or blood freed of the substance per unit of time. High values mean efficient removal, low ones inefficient removal.

Molecules are shown by their SMILES. pIC50, pKi: −log10 of the molar value.

Chain of Melanocortin receptor 4 (P32245 whole entry): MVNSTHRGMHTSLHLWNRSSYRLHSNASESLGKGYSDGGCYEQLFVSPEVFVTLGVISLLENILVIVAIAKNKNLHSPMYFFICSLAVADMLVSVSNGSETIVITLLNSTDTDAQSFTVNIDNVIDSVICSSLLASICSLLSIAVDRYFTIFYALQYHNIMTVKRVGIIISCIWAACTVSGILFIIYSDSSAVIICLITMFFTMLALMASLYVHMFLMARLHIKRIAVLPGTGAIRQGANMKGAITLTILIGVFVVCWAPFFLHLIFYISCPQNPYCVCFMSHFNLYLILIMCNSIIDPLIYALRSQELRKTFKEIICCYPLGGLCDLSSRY

In data set [1], `COc1ccc(Br)cc1CCc1ccccc1-c1nc(C)cn1C` had a pIC50 of 6.62. In data set [2], this compound showed a negative-log Ki (pKi) of 6.57.
For `COc1ccc(Br)cc1CCc1c(Cl)cccc1-c1nccn1C(C)C`, in that order: 5.85 and 6.17.
Consider `CCC(C)n1ccnc1-c1cccc(Cl)c1CCc1cc(Br)ccc1OC` (configuration not stated), for which the pIC50 in data set [1] was 5.68. In data set [2], this compound showed a pKi of 5.60.
The compound `COc1ccc(Br)cc1CCc1ccccc1-c1ncc(C)n1C` showed a pIC50 in data set [1] of 7.29. In data set [2], this compound gave a pKi of 6.74.
For `CCCn1ccnc1-c1cccc(Cl)c1CCc1cc(Br)ccc1OC`, the pIC50 in data set [1] was 5.72. Besides, the negative-log Ki (pKi) in data set [2] was 5.89.
For `CCc1cn(C)c(-c2ccccc2CCc2cc(Br)ccc2OC)n1`, in that order: 6.09 and 6.16.
Compound `COc1ccc(Br)cc1CCc1c(F)cccc1-c1ncc2n1CCC2` showed a negative-log IC50 (pIC50) in data set [1] of 6.41. Also, the negative-log Ki (pKi) in data set [2] was 6.49.
In the case of `COc1ccc(Br)cc1CCc1c(Cl)cccc1-c1nccn1C`, the negative-log IC50 (pIC50) in data set [1] was 5.96. In addition, in data set [2], the negative logarithm of the Ki (pKi) was 6.52.
For `COc1ccc(Br)cc1CCc1c(Cl)cccc1-c1ncc2n1CCC2`, in that order: 6.15 and 6.74.
For `Cn1ccnc1-c1cccc(Cl)c1CCc1cc(Br)ccc1O`, in that order: 4.99 and 5.03.
Compound `COc1ccc(Br)cc1CCc1ccccc1-c1nc(C)c(C)n1C` showed a pIC50 in data set [1] of 6.70. This compound also gave a pKi in data set [2] of 6.85.
Compound `COc1ccc(Br)cc1CCc1ccccc1-c1nc(C(C)C)cn1C` showed a pIC50 in data set [1] of 5.92. Also, the pKi in data set [2] is 5.80.
`CCc1cnc(-c2ccccc2CCc2cc(Br)ccc2OC)n1C` gave a pIC50 in data set [1] of 6.77. In data set [2], this compound had a pKi of 6.49.
Compound `COc1ccc(Br)cc1CCc1c(F)cccc1-c1ncc2n1CCCC2` showed a negative logarithm of the IC50 (pIC50) in data set [1] of 6.32. In data set [2], this compound gave a pKi of 6.21.
`COc1ccc(Br)cc1CCc1c(Cl)cccc1-c1ncc2n1CCCC2` had a pIC50 in data set [1] of 6.23. In data set [3], the AUC amounted to 2 µM·h. Further, in data set [2], the negative-log Ki (pKi) is 6.47. This compound had a CL/F in data set [4] of 18.3 mL/min/kg. Further, in data set [5], the Cmax stood at 6.45 µM.
In turn, `COc1ccc(Br)cc1CCc1c(Cl)cccc1-c1nccn1CC1CC1` had a negative-log IC50 (pIC50) in data set [1] of 5.77. This compound showed a pKi in data set [2] of 5.70.
Compound `COc1ccc(Br)cc1CCc1c(F)cccc1C1=NCCN1` yielded a Cmax in data set [6] of 0.031 µM. Also, the clearance in data set [7] was 222 mL/min/kg. For the same compound, the AUC in data set [8] came out at 0.204 µM·h.
Consider `COc1ccc(Br)cc1CCc1c(Cl)cccc1-c1ncc[nH]1`, for which, in data set [1], the negative logarithm of the IC50 (pIC50) was 6.24. Also, the pKi in data set [2] is 5.82.
`CCn1ccnc1-c1cccc(Cl)c1CCc1cc(Br)ccc1OC` had a pIC50 in data set [1] of 5.74. For the same compound, the pKi in data set [2] is 6.51.

The record behind these values is ChEMBL document CHEMBL1149212, “Synthesis and biological evaluation of imidazole-based small molecule antagonists of the melanocortin 4 receptor (MC4-R)” (Bioorg Med Chem Lett, 2004).
